Experimental data taken from patent publication US8906930B2, “Quinazoline derivatives” (Merck Patent GmbH, priority 2009, dated 2014).
pIC50: −log10 of the molar value.

The compounds below were run against T1, Recombinant human HSP90α (Homo sapiens, UniProt P07900) (assay: HSP90 radioligand filter binding test ([3H]17AAG competition)). Conditions: radioligand [3H]17AAG 0.08 μM; HSP90 1.5 μg/assay; 22° C., 30 min; read-out: HSP90 inhibition IC50.
T1 construct: host or cells: E. coli
Text: The binding of geldanamycin or 17-allylamino-17-demethoxygeldanamycin (17AAG) to HSP90 and competitive inhibition thereof can be utilised in order to determine the inhibitory activity of the compounds according to the invention (Carreras et al. 2003, Chiosis et al. 2002).
In the specific case, a radioligand filter binding test is used. The radioligand used here is tritium-labelled 17-allylaminogeldanamycin, [3H]17AAG. This filter binding test allows a targeted search for inhibitors which interfere with the ATP binding site.
Recombinant human HSP90α (E. coli expressed, 95% purity);
[3H]17AAG (17-allylaminogeldanamycin, [allylamino-2,3-^3H. Specific activity: 1.11×10^12 Bq/mmol (Moravek, MT-1717);
HEPES filter buffer (50 mM HEPES, pH 7.0, 5 mM MgCl2, BSA 0.01%) Multiscreen FB (1 μm) filter plate (Millipore, MAFBNOB 50).
The 96-well microtitre filter plates are firstly irrigated and coated with 0.1% of polyethylenimine.
The test is carried out under the following conditions:
Reaction temperature 22° C.
Reaction time: 30 min., shaking at 800 rpm
50 mM HEPES HCl, pH 7.0, 5 mM MgCl2, 0.01% (w/v) of BSA
At the end of the reaction, the supernatant in the filter plate is removed by suction with the aid of a vacuum manifold (Multiscreen Separation System, Millipore), and the filter is washed twice.
The filter plates are then measured in a beta counter (Microbeta, Wallac) with scintillator (Microscint 20, Packard).
“% of control” is determined from the “counts per minutes” values, and the IC-50 value of a compound is calculated therefrom.
Work on `CCCNC(=O)C(C)(C)c1ccc2nc(N)nc(C(=O)N3Cc4ccccc4C3)c2c1` [Compound A38, 2-[2-Amino-4-(isoindoline-2-carbonyl)quinazolin-6-yl]-N-propyl-2-methylpropanamide] yielded a pIC50 of 6.00 to 8.00.
For `CC(C)(C(=O)NCC(N)=O)c1ccc2nc(N)nc(C(=O)N3Cc4ccccc4C3)c2c1` [Compound A39, 2-[2-Amino-4-(isoindoline-2-carbonyl)quinazolin-6-yl]-N-(2-amino-2-oxoethyl)-2-methylpropanamide], the pIC50 was 6.00 to 8.00.
`CC(C)(C(=O)NCCC#N)c1ccc2nc(N)nc(C(=O)N3Cc4ccccc4C3)c2c1` [Compound A40, 2-[2-Amino-4-(isoindoline-2-carbonyl)quinazolin-6-yl]-N-(2-cyanoethyl)-2-methylpropanamide] was tested, and the pIC50 was 5.00 to 6.00.
For `CNC(=O)C(CCC(F)F)c1ccc2nc(N)nc(C(=O)N3Cc4ccccc4C3)c2c1` (stereo not shown) [Compound A41, 2-[2-Amino-4-(isoindoline-2-carbonyl)quinazolin-6-yl]-N-methyl-5,5-difluoropentanamide], the pIC50 was 6.00 to 8.00.
`CCNC(=O)C(CCC(F)F)c1ccc2nc(N)nc(C(=O)N3Cc4ccccc4C3)c2c1` (stereo not shown) [Compound A42, 2-[2-Amino-4-(isoindoline-2-carbonyl)quinazolin-6-yl]-N-ethyl-5,5-difluoropentanamide] was tested, and the pIC50 was 5.00 to 6.00.
In the case of `CCCC(C(=O)NCC)c1ccc2nc(N)nc(C(=O)N3Cc4ccccc4C3)c2c1` (stereo not shown) [Compound A43, 2-[2-Amino-4-(isoindoline-2-carbonyl)quinazolin-6-yl]-N-ethylpentanamide], the pIC50 was 6.00 to 8.00.
Compound `CCCCC(C(=O)NCC)c1ccc2nc(N)nc(C(=O)N3Cc4ccccc4C3)c2c1` (stereo not shown) [Compound A44, 2-[2-Amino-4-(isoindoline-2-carbonyl)quinazolin-6-yl]-N-ethylhexanamide] has a pIC50 of 6.00 to 8.00.
`CCNC(=O)C(CCC(C)C)c1ccc2nc(N)nc(C(=O)N3Cc4ccccc4C3)c2c1` (stereo not shown) [Compound A45, 2-[2-Amino-4-(isoindoline-2-carbonyl)quinazolin-6-yl]-N-ethyl-5-methyl-hexanamide] was tested, and the pIC50 was 6.00 to 8.00.
In the case of `CCNC(=O)C(CC(C)C)c1ccc2nc(N)nc(C(=O)N3Cc4ccccc4C3)c2c1` (stereo not shown) [Compound A46, 2-[2-Amino-4-(isoindoline-2-carbonyl)quinazolin-6-yl]-N-ethyl-4-methylpentanamide], the pIC50 was 6.00 to 8.00.
With `CCNC(=O)C(c1ccc2nc(N)nc(C(=O)N3Cc4ccccc4C3)c2c1)C(C)CC` (stereo not shown) [Compound A47, 2-[2-Amino-4-(isoindoline-2-carbonyl)quinazolin-6-yl]-N-ethyl-3-methylpentanamide] the pIC50 was 6.00 to 8.00.
`CCNC(=O)C(c1ccc2nc(N)nc(C(=O)N3Cc4ccccc4C3)c2c1)C(C)C` (stereo not shown) [Compound A48, 2-[2-Amino-4-(isoindoline-2-carbonyl)quinazolin-6-yl]-N-ethyl-3-methyl-butanamide] was tested, and the pIC50 was 6.00 to 8.00.
Work on `C=C(CC(C(=O)NCC)c1ccc2nc(N)nc(C(=O)N3Cc4ccccc4C3)c2c1)C(N)=O` (stereo not shown) [Compound A50, 2-[2-Amino-4-(isoindoline-2-carbonyl)quinazolin-6-yl]-N′-ethyl-2-methylene-pentanediamide] yielded a pIC50 of 5.00 to 6.00.
Work on `CCNC(=O)C1(c2ccc3nc(N)nc(C(=O)N4Cc5ccccc5C4)c3c2)CCCC1` [Compound A53, 1-[2-Amino-4-(isoindoline-2-carbonyl)quinazolin-6-yl]-N-ethylcyclopentanecarboxamide] yielded a pIC50 of 6.00 to 8.00.
`CCNC(=O)C1(c2ccc3nc(N)nc(C(=O)N4Cc5ccccc5C4)c3c2)CCOCC1` [Compound A54, 1-[2-Amino-4-(isoindoline-2-carbonyl)quinazolin-6-yl]-N-ethyltetrahydropyran-4-carboxamide] was tested, and the pIC50 was 5.00 to 6.00.
In the case of `CCCC(C)(C(=O)NCC)c1ccc2nc(N)nc(C(=O)N3Cc4ccccc4C3)c2c1` (stereo not shown) [Compound A55, 2-[2-Amino-4-(isoindoline-2-carbonyl)quinazolin-6-yl]-N-ethyl-2-methylpentanamide], the pIC50 was 6.00 to 8.00.
With `CCOC(=O)C1(c2ccc3nc(N)nc(C(=O)N4Cc5ccccc5C4)c3c2)CC1` [Compound A56, Ethyl 1-[2-amino-4-(isoindoline-2-carbonyl)quinazolin-6-yl]cyclopropanecarboxylate] the pIC50 was 6.00 to 8.00.
`Nc1nc(C(=O)N2Cc3ccccc3C2)c2cc(C3(C(=O)O)CC3)ccc2n1` [Compound A57, 1-[2-Amino-4-(isoindoline-2-carbonyl)quinazolin-6-yl]cyclopropanecarboxylic acid] was tested, and the pIC50 was 6.00 to 8.00.
Compound `C=C(CC(C(=O)O)c1ccc2nc(N)nc(C(=O)N3Cc4ccccc4C3)c2c1)C(N)=O` (stereo not shown) [Compound A74] has a pIC50 of 5.00 to 6.00.
In the case of `CN1CCN(Cc2ccc3nc(N)nc(C(=O)N4Cc5ccccc5C4)c3c2)CC1` [Compound A76, [2-amino-6-[(4-methylpiperazin-1-yl)methyl]quinazolin-4-yl]-isoindolin-2-ylmethanone], the pIC50 was 5.00 to 6.00.
